Results reported in PMC7884711, “Identification of efficient prokaryotic cell-penetrating peptides with applications in bacterial biotechnology” (Communications Biology, 2021).

Legend:
[1] = tested on: wild-type and tetA-harboring Methylomonas sp. DH-1; experiment: NiCl2 susceptibility, colony counts on NMS agar; assay type: cell-based; details: for Number of colonies, Wild-type cells: Methylomonas sp. DH-1, NMS agar; for Number of colonies, tetA-harboring cells: Methylomonas sp. DH-1 with genomic tetA, NMS agar
Experimental: (§1) To investigate the susceptibility of tetA-harboring E. coli and tetA-harboring Methylomonas sp. DH-1 to NiCl2, wild-type cells and the cells containing the tetA gene in the plasmid (E. coli) or in the genome (Methylomonas sp. DH-1) were incubated in an LB (E. coli) or NMS (Methylomonas sp. DH-1) agar plate with different concentrations of NiCl2 (0.5–8 mM). The optimal NiCl2 concentrations that were determined to counter select tetA-removed cells were 2 mM and 4 mM for E. coli and Methylomonas sp. DH-1, respectively.

[2] = tested on: wild-type and tetA plasmid-harboring E. coli; experiment: NiCl2 susceptibility, colony counts on LB agar; assay type: cell-based, Escherichia coli; details: for Number of colonies, Plasmid-harboring cells: E. coli with tetA plasmid; for Number of colonies, Plasmid-harboring cells / Number of colonies, Wild-type cells: LB agar, 37 °C 24 h; for Number of colonies, Wild-type cells: E. coli
Description: Additionally, for the counterselection of plasmid-removed cells, we inserted the tetracycline resistance gene (tetA) into the plasmid to be removed. With the plasmid, the cells can survive in tetracycline media but not in Ni^2+ media. Conversely, without the plasmid, the cells cannot survive in tetracycline media but can survive in Ni^2+ media. The tetA gene induces host cells to accumulate twice as much Ni^2+ as normal cells, so tetA-containing cells are more susceptible to NiCl2 toxicity than normal cells. To determine a suitable Ni^2+ concentration for the selection of plasmid-removed cells, wild-type E. coli cells and tetracycline-resistant cells harboring the tetA gene in the plasmid were grown on Luria–Bertani (LB) agar plates containing 1–4 mM NiCl2. As shown in Supplementary Table 1, after incubation at 37 °C for 24 h, wild-type E. coli cells were capable of growing on LB agar plates containing up to 2.2 mM NiCl2. […] Therefore, we chose 2.0 mM NiCl2 as the selection concentration (Supplementary Table 1).
as §1

## [Cl][Ni][Cl] [NiCl2]
[1]; NiCl2 0.5 mM
  Number of colonies, Wild-type cells: 180 ± 6.42
  Number of colonies, tetA-harboring cells: 119 ± 6.42
[1]; NiCl2 1 mM
  Number of colonies, Wild-type cells: 128 ± 10.50
  Number of colonies, tetA-harboring cells: 125 ± 4.40
[1]; NiCl2 2 mM
  Number of colonies, Wild-type cells: 114 ± 4.04
  Number of colonies, tetA-harboring cells: 3 ± 2.08
[1]; NiCl2 4 mM
  Number of colonies, Wild-type cells: 87 ± 16.09
  Number of colonies, tetA-harboring cells: 0
[1]; NiCl2 8 mM
  Number of colonies, Wild-type cells: 21 ± 5.03
  Number of colonies, tetA-harboring cells: 0
[1]; NiCl2 >8.0 mM
  Number of colonies, Wild-type cells: 0
  Number of colonies, tetA-harboring cells: 0
[2]; NiCl2 1.8 mM
  Number of colonies, Plasmid-harboring cells: 10.67 ± 2.27
  Number of colonies, Wild-type cells: 2492 ± 94.27
[2]; NiCl2 1.9 mM
  Number of colonies, Plasmid-harboring cells: 4 ± 1.15
  Number of colonies, Wild-type cells: 2065.33 ± 181.07
[2]; NiCl2 2 mM
  Number of colonies, Plasmid-harboring cells: 0.34 ± 0.19
  Number of colonies, Wild-type cells: 1010.67 ± 121.71
[2]; NiCl2 2.1 mM
  Number of colonies, Plasmid-harboring cells: 0
  Number of colonies, Wild-type cells: 776 ± 73.11
[2]; NiCl2 2.2 mM
  Number of colonies, Plasmid-harboring cells: 0
  Number of colonies, Wild-type cells: 29 ± 4.40
[2]; NiCl2 2.3 mM
  Number of colonies, Plasmid-harboring cells: 0
  Number of colonies, Wild-type cells: 0.67 ± 0.19
[2]; NiCl2 >2.30 mM
  Number of colonies, Plasmid-harboring cells: 0
  Number of colonies, Wild-type cells: 0
[2]; LB agar plates, 37 °C, 24 h
  NiCl2 concentration up to which wild-type E. coli cells were capable of growing: 2.2 mM
[2]; LB agar plates, 37 °C, 24 h, 2.0 mM NiCl2
  Growth of tetA-harboring E. coli cells on plates containing 2.0 mM NiCl2: not able to grow
